“And” between values parts separate entries of the source, which are not always exact repeats. Equal values may be shown once. Read-outs that look alike come from different tables or passages of the source. Values belong to the compound of their own block, whether it stands above or below them.
Key:
5637 cells = system: 5637 cells; parameters: method as in Tessmann et al., 2017; conditions: human bladder cancer cell line; ref Tessmann et al., 2017; cited from earlier work
MDA-MB-468 cells [1] = assay: MTT cell viability assay, MDA-MB-468; assay type: cell-based, human; conditions: mean ± SD of triplicate
Protocol: (§1) The MDA-MB-468 cells were maintained in DMEM/Ham’s F12 supplemented with L-glutamine, with 10% fetal bovine serum and 1% penicillin/streptomycin. The AGO1522 cell line was cultured in DMEM/Low Glucose, with 10% fetal bovine serum and 1% penicillin/ streptomycin. Cells were incubated at 37°C, 5% CO2 and every 2-3 days at the confluency of 80%, the cells were harvested from the culture flask by Trypsin-EDTA.
(§2) Cell viability was measured with the MTT assay. The reduction of the tetrazolium salt, to a blue formazan crystal is facilitated by mitochondrial dehydrogenase and NADPH-dependent cellular oxidoreductase enzymes (Abel and Baird, 2018). In the assay, an aliquot of 7.5 × 10^3 cells was seeded on the 96-well plates and allowed to attach overnight. Then, 11 Pyrazole derivatives (as shown in Table 1 and Figure S1) were added to the desired well with the final concentration of 3, 6.25, 12.5, 25, 50, 100 μM. After pre-treating cells for 24 and 48h, MTT (5 mg/ml in PBS) was added to each well and the cells were incubated for another 4 h at 37°C. In order to dissolve blue-colored formazan crystals, the entire medium was aspirated after the incubation period, and DMSO was added to the wells. An ELISA plate reader (BioTek Instruments, Inc., USA) was used to quantify the formazan concentration (with the wavelengths of 570 nm). All of the experiments were carried out on three replicates to ensure the measurement repeatability and the IC50 values were also calculated using GraphPad Prism software.

AGO1522 cells = assay: MTT cell viability assay, AGO1522 normal fibroblasts; assay type: cell-based; conditions: Homo sapiens, Fibroblast, mean ± SD of triplicate
Protocol: as §1, §2

MDA-MB-468 cells [2] = assay: Annexin V-FITC/PI apoptosis detection by flow cytometry; assay type: cell-based, human; conditions: 14.97 µM, 24 h, MDA-MB-468, compared with untreated cells
Protocol: Annexin V-FITC/PI Apoptosis Detection Kit was employed to detect apoptosis. To assess the number of apoptotic cells, an aliquot of MDA-MB-468 cells was adjusted to obtain 2 × 10^5 cells per well in six-well plates followed by incubation for an overnight. After incubation cells on the surface for an appropriate time, compound 3f was added to the wells to obtain the final concentration of 14.7μM in wells for 24 h. Cells were then harvested from the culture wells by aspirating media and washing with ice-cold PBS. Once the cells have detached, resuspended cells were pipetted up and down thoroughly followed by transferring to a sterilized 5 ml centrifuge tube. After 15min, 400 µl of the binding buffer was added to the cell suspension. Then annexin V-FITC and PI staining solution were added to the tubes. The cell suspension was then placed in a dark place (10 min at room temperature). A flow cytometer (BD Biosciences, San Jose, CA) was used to analyze the cells. The analysis of data was made using FlowJo software.

MDA-MB-468 cells [3] = assay: Cell cycle analysis by PI staining and flow cytometry; assay type: cell-based, human; conditions: 14.97 μM, 24 h
Protocol: Cell cycle analysis was conducted through taking advantage of PI staining and flow cytometry analysis. To evaluate cellular DNA levels, the cells stained with PI were subjected to ﬂow cytometric analyses. In this assay, six-well plates were loaded with 2 × 10^5 MDA-MB-468 cells / well. After incubation of the samples at 37°C for 24 h, cells were treated with 3f at concentrations of 14.7 μM followed 24 h incubation. Then, the effect of the drug became evident and cells collected by rinsing with PBS (two times), immobilizing with 70% ice-cold ethanol (for 3 h), and washing with PBS (two times). To resuspend the cells a mixture of 0.25 ml PBS containing 5 μl of 10 mg/ml RNase A and Triton X-100 (0.1%) including 10μl of PI (50 μg/ml) was used and incubation was performed at 37°C for 30 min in a dark place. The assessment of stain cells was carried out employing a FACS Calibur flow cytometer (BD Biosciences, San Jose, CA). The apoptotic rate of the cell population was measured by calculating the percentage of cells with sub-G1 DNA content.

MDA-MB-468 cells [4] = assay: Intracellular ROS detection with DCFH-DA; assay type: cell-based, human; conditions: 14.97 μM, 24 h, MDA-MB-468, DCFH-DA fluorimetry, vs untreated
Protocol: The level of intracellular ROS corresponded to the MDA-MB-468 cells in response to the 3f compound was monitored by using DCFH-DA. Briefly, 7.5 × 10^3 MDA-MB-468 cells were seeded per well of 96-wells plate and allowed to attach to the bottom of the wells for an overnight followed by treatment with 3f compound at a concentration of 14.7 μM. After incubation of cells for 24 h, PBS was used for rinsing and then cells incubated in the presence of DCFH-DA for 30 min at 37°C. Next, to remove the extracellular DCFH-DA, cells were washed three times with prechilled PBS. Finally, the fluorescent of collected cells was analyzed by using a fluorescent microplate reader (BioTek Synergy HT, Winooski, VT, USA).

[5] = system: caspase-3 in MDA-MB-468 cells; assay: Caspase-3 activity, DEVD-AFC fluorometric assay; assay type: cell-based, human; conditions: 14.97 μM, 24 h, MDA-MB-468, vs untreated
Protocol: From a mechanistic point of view, caspase 3 as a member of the cysteine-aspartic protease family is essential for a variety of biological activities, including apoptosis in mammalian cells (Skiba et al., 2019). To confirm the drug triggers apoptosis, the level of 7-amino-4-trifluoromethyl-coumarin (AFC) from DEVD-AFC, a marker of caspase 3 activation, was measured using Caspase-3/CPP32 Fluorometric Assay Kit (BioVision Research Products, Mountain View, CA, USA). Briefly, MDA-MB-468 cells (a density of 7.5 × 10^3 per well in 96-wells plate) were treated with 14.97 μM 3f for 24 h. The following day, cells were collected, washed two times in PBS and lysed in lysis buffer (for 10 min on ice). The concentration of protein was assessed and 50 µL of supernatant containing 50-200 µg protein was added to the 50 µL of 2x reaction buffer and 5 μl of DEVD-AFC substrate (1 mM), in a 96-wells plate. The mixture was then left at 37°C for 2 hours followed by monitoring the fluorescence intensity using a fluorescent microplate reader (BioTek Synergy HT, Winooski, VT, USA).

[6] = Homo sapiens, MDA-MB-468, 24 h, 24 h treatment, read-out: IC50, MDA-MB-468, 24 hours
[7] = Homo sapiens, MDA-MB-468, 48 h, 48 h treatment, read-out: IC50, MDA-MB-468, 48 hours
[8] = 24 h treatment, read-out: IC50, AGO1522, 24 hours
[9] = 48 h treatment, read-out: IC50, AGO1522, 48 hours

- IC50 (MDA-MB-468 cells [1]; [6]): 19.4 ± 1.14 µM
- IC50 (MDA-MB-468 cells [1]; [7]): 11 ± 0.88 µM
Compound: COc1cc(-c2cc(-c3ccccc3)nn2-c2ccccc2)cc(OC)c1OC [4a, 1,3-diphenyl-5-(3,4,5-trimethoxyphenyl)-1H-Pyrazole]
- IC50 (AGO1522 cells; [8]): 31.2 ± 1.24 µM
- IC50 (AGO1522 cells; [9]): 14.5 ± 0.97 µM

- IC50 (MDA-MB-468 cells [1]; [6]): 58.2 ± 1.35 µM
- IC50 (MDA-MB-468 cells [1]; [7]): 12 ± 0.94 µM
Compound: COc1ccc(-c2cc(-c3cc(OC)c(OC)c(OC)c3)n(-c3ccc(C)cc3)n2)cc1 [4b, 3-(4-methoxyphenyl)-1-(p-tolyl)-5-(3,4,5-trimethoxyphenyl)-1H-Pyrazole]
- IC50 (AGO1522 cells; [8]): 34.6 ± 0.89 µM
- IC50 (AGO1522 cells; [9]): 27 ± 0.79 µM

- IC50 (MDA-MB-468 cells [1]; [6]): 28.8 ± 0.98 µM
- IC50 (MDA-MB-468 cells [1]; [7]): 12.4 ± 0.79 µM
Compound: COc1ccc(-c2cc(-c3cc(OC)c(OC)c(OC)c3)n(-c3ccc(Cl)cc3)n2)cc1 [4c, 1-(4-chlorophenyl)-3-(4-methoxyphenyl)-5-(3,4,5-trimethoxyphenyl)-1H-Pyrazole]
- IC50 (AGO1522 cells; [8]): 25.2 ± 0.88 µM
- IC50 (AGO1522 cells; [9]): 20.9 ± 0.92 µM

- IC50 (MDA-MB-468 cells [1]; [6]): 58.6 ± 1.32 µM
- IC50 (MDA-MB-468 cells [1]; [7]): 24.5 ± 1.17 µM
Compound: COc1ccc(-c2cc(-c3cc(OC)c(OC)c(OC)c3)n(-c3ccc(F)cc3)n2)cc1 [4d, 1-(4-fluorophenyl)-3-(4-methoxyphenyl)-5-(3,4,5-trimethoxyphenyl)-1H-Pyrazole]
- IC50 (AGO1522 cells; [8]): 34.4 ± 1.31 µM
- IC50 (AGO1522 cells; [9]): 27.3 ± 0.94 µM

The next lines start with the compound.

Compound: NC(=S)N1N=C(c2ccccc2)CC1c1ccccc1 (stereo not shown) [2a, 1-thiocarbamoyl-3,5-diphenyl-4,5-dihydro-1H-Pyrazole]
- cell cycle progression of 5637 cells (5637 cells): inhibited cell cycle progression

Compound: NC(=S)N1N=C(c2ccccc2)CC1c1ccc(Cl)cc1 (stereo not shown) [2c, 1-thiocarbamoyl-5-(4-chlorophenyl)-3-phenyl-4,5-dihydro-1H-Pyrazole]
- cell cycle progression of 5637 cells (5637 cells): inhibited cell cycle progression

Compound: COc1cc(C2CC(c3ccccc3)=NN2c2ccccc2)cc(OC)c1OC (stereo not shown) [3a, 1,3-diphenyl-5-(3,4,5-trimethoxyphenyl)-4,5-dihydro-1H-Pyrazole]
- IC50 (MDA-MB-468 cells [1]; [6]): 25 µM
- IC50 (MDA-MB-468 cells [1]; [7]): 6.41 ± 1.1 µM
- IC50 (AGO1522 cells; [8]): 28.8 ± 0.95 µM
- IC50 (AGO1522 cells; [9]): 19.9 ± 0.83 µM

Compound: COc1cc(C2CC(c3ccccc3)=NN2c2ccc(C)cc2)cc(OC)c1OC (stereo not shown) [3b, 3-phenyl-1-(p-tolyl)-5-(3,4,5-trimethoxyphenyl)-4,5-dihydro-1H-Pyrazole]
- IC50 (MDA-MB-468 cells [1]; [6]): 19.2 ± 0.97 µM
- IC50 (MDA-MB-468 cells [1]; [7]): 9.29 ± 0.67 µM
- IC50 (AGO1522 cells; [8]): 29.8 ± 1.02 µM
- IC50 (AGO1522 cells; [9]): 19.8 ± 0.96 µM

Compound: COc1cc(C2CC(c3ccccc3)=NN2c2ccc(Cl)cc2)cc(OC)c1OC (stereo not shown) [3c, 1-(4-chlorophenyl)-3-phenyl-5-(3,4,5-trimethoxyphenyl)-4,5-dihydro-1H-Pyrazole]
- IC50 (MDA-MB-468 cells [1]; [6]): 58.6 ± 0.82 µM
- IC50 (MDA-MB-468 cells [1]; [7]): 19.9 ± 1.12 µM
- IC50 (AGO1522 cells; [8]): 24.1 ± 0.65 µM
- IC50 (AGO1522 cells; [9]): 17.7 ± 0.93 µM

Compound: COc1cc(C2CC(c3ccccc3)=NN2c2ccc(F)cc2)cc(OC)c1OC (stereo not shown) [3d, 1-(4-fluorophenyl)-3-phenyl-5-(3,4,5-trimethoxyphenyl)-4,5-dihydro-1H-Pyrazole]
- IC50 (MDA-MB-468 cells [1]; [6]): 32.6 ± 1.22 µM
- IC50 (MDA-MB-468 cells [1]; [7]): 15.2 ± 0.9 µM
- IC50 (AGO1522 cells; [8]): 42.1 ± 1.27 µM
- IC50 (AGO1522 cells; [9]): 35.6 ± 1.32 µM

Compound: COc1ccc(C2=NN(c3ccccc3)C(c3cc(OC)c(OC)c(OC)c3)C2)cc1 (stereo not shown) [3e, 3-(4-methoxyphenyl)-1-phenyl-5-(3,4,5-trimethoxyphenyl)-4,5-dihydro-1H-Pyrazole]
- IC50 (MDA-MB-468 cells [1]; [6]): 21.3 ± 0.85 µM
- IC50 (MDA-MB-468 cells [1]; [7]): 10.8 ± 0.93 µM
- IC50 (AGO1522 cells; [8]): 42.8 ± 0.98 µM
- IC50 (AGO1522 cells; [9]): 19.9 ± 0.99 µM

Compound: COc1ccc(C2=NN(c3ccc(C)cc3)C(c3cc(OC)c(OC)c(OC)c3)C2)cc1 (stereo not shown) [3f, 3-(4-methoxyphenyl)-1-(p-tolyl)-5-(3,4,5-trimethoxyphenyl)-4,5-dihydro-1H-Pyrazole]
- IC50 (MDA-MB-468 cells [1]; 48 h treatment, read-out: IC50, MDA-MB-468, 48 hours): 6.45 ± 0.84 µM
- IC50 (MDA-MB-468 cells [1]; [6]): 15 ± 1.09 µM
- IC50 (MDA-MB-468 cells [1]; [7]): 6.4 µM
- IC50 (AGO1522 cells; [8]): 28.7 ± 1.2 µM
- IC50 (AGO1522 cells; [9]): 20.3 ± 0.83 µM
- apoptosis value (MDA-MB-468 cells [2]): 38%
- G1 cell fraction (MDA-MB-468 cells [3]): 50.52%
- G2 cell fraction (MDA-MB-468 cells [3]): 6.28%
- S phase cell fraction (MDA-MB-468 cells [3]): 35% and 35.01%
- Sub-G1 cell fraction (MDA-MB-468 cells [3]): 8.12%
- Super-G2 cell fraction (MDA-MB-468 cells [3]): 0.07%
- cell cycle effect (MDA-MB-468 cells [3]): induced cell cycle arrest in S phase
- Sub-G1 cell fraction (MDA-MB-468 cells [3]; as worded in text): 8.12%
- intracellular ROS level (MDA-MB-468 cells [4]): ascending trend
- caspase-3 activity [5]: significantly increased

Compound: COc1ccc(C2=NN(c3ccc(Cl)cc3)C(c3cc(OC)c(OC)c(OC)c3)C2)cc1 (stereo not shown) [3g, 1-(4-chlorophenyl)-3-(4-methoxyphenyl)-5-(3,4,5-trimethoxyphenyl)-4,5-dihydro-1HPyrazole]
- IC50 (MDA-MB-468 cells [1]; [6]): 25.8 ± 0.91 µM
- IC50 (MDA-MB-468 cells [1]; [7]): 8.5 ± 0.89 µM
- IC50 (AGO1522 cells; [8]): 43.3 ± 0.96 µM
- IC50 (AGO1522 cells; [9]): 34 ± 1.92 µM

Compound: CC(=O)O[C@H]1C(=O)[C@@]2(C)[C@H]([C@H](OC(=O)c3ccccc3)[C@]3(O)C[C@H](OC(=O)[C@H](O)[C@@H](NC(=O)c4ccccc4)c4ccccc4)C(C)=C1C3(C)C)[C@]1(OC(C)=O)CO[C@@H]1C[C@@H]2O [Paclitaxel, reference compound]
- IC50 (MDA-MB-468 cells [1]; [6]): 49.9 ± 0.97 µM
- IC50 (MDA-MB-468 cells [1]; [7]): 25.2 ± 1.27 µM
- IC50 (AGO1522 cells; [8]): 42.9 ± 1.42 µM
- IC50 (AGO1522 cells; [9]): 22.6 ± 0.91 µM

Source: article PMC8607110, “Pyrazole Derivatives Induce Apoptosis via ROS Generation in the Triple Negative Breast Cancer Cells, MDA-MB-468” (Asian Pacific Journal of Cancer Prevention : APJCP, 2021)
